The text below walks through data of PMC3117861, “Analysis of Proteasomal Proteolysis during the In Vitro Metacyclogenesis of Trypanosoma cruzi” (PLoS ONE, 2011).

Each structure is given as a SMILES string. Where a SMILES comes first, the peptide text is derived from it. The star is where a group is joined. Cbz = O=C(OCc1ccccc1)*

This test deals with T1, 20S proteasome (Trypanosoma cruzi, UniProt V5BU39).
T1 construct: gene TCDM_03188; ATP in assay, so 20S and 26S forms not separated; with Proteasome subunit beta type-1; Proteasome subunit beta type-2; Proteasome subunit beta type-3; Proteasome subunit beta type-4; Proteasome subunit beta type-7; Proteasome subunit alpha type-1; Proteasome subunit alpha type-2; Proteasome subunit alpha type-3; Proteasome subunit alpha type-4; Proteasome subunit alpha type-5; Proteasome subunit alpha type-6; Proteasome subunit alpha type-7
Description: fluorimetric peptidase assay in crude extract. It is filed as biochemical. The conditions noted are these: read-out: % inhibition at 50 μM (chymotrypsin-like activity).

In the case of `CC(C)C[C@@H](C=O)NC(=O)[C@H](CC(C)C)NC(=O)[C@H](CC(C)C)NC(=O)OCc1ccccc1` [MG132] (Cbz-Leu-Leu-Leu-aldehyde), the inhibition (in general, the change of the read-out against control, counted positive when it falls) at 50 µM is 95%.
